The values that follow come from US9873717B2, “TRH binding site in human CNS” (THE PROVOST, FELLOWS, FOUNDATION SCHOLARS, AND THE OTHER …, priority 2012, dated 2018).

“Also recorded” adds a separate entry of the source. Like-named read-outs stand apart in the source and are kept apart here. Non-standard residues stand in square brackets, D forms with d. Residues, ends and D or L forms follow the SMILES beside them. *: point of attachment. AMC = Cc1cc(=O)oc2cc(N*)ccc12; pGlu = O=C1CC[C@@H](C(=O)O)N1

As usually defined, the Ki is the dissociation constant of the complex between target and ligand, obtained from inhibition or displacement. The IC50 is the concentration at which inhibition is half-maximal. The term Kd denotes a measure of binding affinity in units of concentration.

Test [1] concerns the target [^3H][3-Me-His^2]TRH-labelled native TRH receptors in rat cortical membranes. Kind of test: Displacement of [3H][3-Me-His2]TRH, native rat cortical membranes. Conditions: native rat tissue; N = 3-6. It counts as binding. A general note: Displacement assays read how much labelled ligand stays bound in the presence of the test substance.
The target of test [2] is [^3H][3-Me-His^2]TRH-labelled native TRH receptors in rat hippocampal membranes. Kind of test: Displacement of [3H][3-Me-His2]TRH, native rat hippocampal membranes. Type of test: binding. Conditions: native rat tissue; N = 3-6.
The target of test [3] is T1, TRHR1 (GH4 pituitary cell line, naturally expresses TRHR1) (Rattus norvegicus, UniProt Q01717).
T1 construct: a GH4 pituitary cell line, which naturally expresses TRHR1; endogenous in cells; host or cells: GH4 pituitary cell membranes
T1 sequence (Q01717 1-412): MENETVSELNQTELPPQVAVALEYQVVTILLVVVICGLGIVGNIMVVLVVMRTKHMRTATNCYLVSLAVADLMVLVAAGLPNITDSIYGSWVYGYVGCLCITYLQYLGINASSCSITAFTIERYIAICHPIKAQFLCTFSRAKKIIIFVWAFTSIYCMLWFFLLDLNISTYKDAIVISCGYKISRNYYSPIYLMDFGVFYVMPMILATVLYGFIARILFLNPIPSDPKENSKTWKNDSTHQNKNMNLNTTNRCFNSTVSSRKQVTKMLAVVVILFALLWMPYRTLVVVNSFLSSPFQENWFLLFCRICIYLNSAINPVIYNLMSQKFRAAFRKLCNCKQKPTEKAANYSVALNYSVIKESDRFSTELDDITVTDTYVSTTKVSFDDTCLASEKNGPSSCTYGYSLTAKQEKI
Kind of test: Displacement of [3H][3-Me-His2]TRH, GH4 cell membranes. Type of test: binding. Conditions: N = 2; read-out: IC50, displacement of [^3H][3-Me-His^2]TRH, GH4 cell membranes.

The test system of test [4] is TRHR1. Nature of the test: Displacement of [3H][3-Me-His2]TRH, membranes from CHO cells transfected with TRHR1. It counts as binding. Particulars: N = 2; read-out: IC50, displacement of [^3H][3-Me-His^2]TRH, membranes from Chinese Hamster Ovary cells transfected with TRHR1.
In test [5] the test system is TRH receptors in human CNS tissue (cortical, hippocampal, spinal cord). Nature of the test: Competition binding with [3H][3-Me-His2]TRH, human CNS tissue membranes. Particulars: for IC50: 5 h at 4° C. The protocol: Competition binding assays using human tissue prepared from individual donors with no history of neurological disease were carried out essentially as previously described (Kelly et al., 2002; Scalabrino et al., 2007; […] Separation of bound and free ligand was achieved by vacuum filtration through GF/C or GF/B filters, followed by washing with 3×5 ml of ice-cold NaCl or Tris-HCl buffer. The radioactivity retained on the filters was measured by liquid scintillation counting.

Test [6] deals with T2, TRH receptors in human pituitary tissue (Homo sapiens, UniProt P34981).
T2 construct: from tissue; host or cells: human pituitary membranes from individual donors
T2 sequence (P34981 1-398): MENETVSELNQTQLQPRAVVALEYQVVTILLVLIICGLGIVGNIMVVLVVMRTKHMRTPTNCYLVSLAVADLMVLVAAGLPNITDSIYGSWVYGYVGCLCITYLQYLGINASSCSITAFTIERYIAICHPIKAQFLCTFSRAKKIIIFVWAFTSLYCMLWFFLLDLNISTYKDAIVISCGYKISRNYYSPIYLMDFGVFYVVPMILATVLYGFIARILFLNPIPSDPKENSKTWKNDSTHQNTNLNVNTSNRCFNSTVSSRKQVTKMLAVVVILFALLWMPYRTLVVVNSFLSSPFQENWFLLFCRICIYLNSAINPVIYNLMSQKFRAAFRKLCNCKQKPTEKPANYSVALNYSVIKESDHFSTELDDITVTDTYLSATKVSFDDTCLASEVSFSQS
Nature of the test: Competition binding with [3H][3-Me-His2]TRH, human pituitary tissue membranes. The protocol: To investigate the binding of Glp-Asn-Pro-D-Tyr-D-TrpNH2 in human tissue, radioligand binding studies were carried out employing [^3H][3-Me-His^2]TRH to label TRH receptors in cortical, hippocampal, spinal cord and pituitary tissue membranes from human tissue.
Competition binding assays using human tissue prepared from individual donors with no history of neurological disease were carried out essentially as previously described (Kelly et al., 2002; Scalabrino et al., 2007; Hogan et al., 2008) by incubating membrane suspension, [^3H][3-Me-His^2]TRH, and increasing concentrations of peptide for 5 h at 4° C. Non-specific binding (NSB) was determined in the presence of 10 μM TRH. Separation of bound and free ligand was achieved by vacuum filtration through GF/C or GF/B filters, followed by washing with 3×5 ml of ice-cold NaCl or Tris-HCl buffer. The radioactivity retained on the filters was measured by liquid scintillation counting.

The subject of test [7] is [^3H][3-Me-His^2]TRH-labelled native TRH receptors in rat cortical membranes. Conditions: cited from earlier work.
Test [8] concerns [^3H][3-Me-His^2]TRH-labelled native TRH receptors in rat hippocampal membranes. Conditions: Scalabrino 2007, Hogan 2008; cited from earlier work.
Test [9] addresses T1, TRHR1 (GH4 pituitary cell line, naturally expresses TRHR1). Conditions: Scalabrino 2007, Hogan 2008; cited from earlier work.
Test [10] relates to TRHR1. Particulars: Scalabrino 2007, Hogan 2008; cited from earlier work.
Test [11] deals with T3, TRH receptors in rat pituitary tissue (Rattus norvegicus, UniProt Q01717).
T3 construct: host or cells: rat pituitary tissue
T3 sequence (Q01717 1-412): T1 sequence (Q01717 1-412)
Conditions: cited from earlier work.

The target in test [12] is T4, TRHR2 (Rattus norvegicus, UniProt A6IZR3).
T4 construct: host or cells: CHO cells expressing TRHR2
T4 sequence (A6IZR3 1-352): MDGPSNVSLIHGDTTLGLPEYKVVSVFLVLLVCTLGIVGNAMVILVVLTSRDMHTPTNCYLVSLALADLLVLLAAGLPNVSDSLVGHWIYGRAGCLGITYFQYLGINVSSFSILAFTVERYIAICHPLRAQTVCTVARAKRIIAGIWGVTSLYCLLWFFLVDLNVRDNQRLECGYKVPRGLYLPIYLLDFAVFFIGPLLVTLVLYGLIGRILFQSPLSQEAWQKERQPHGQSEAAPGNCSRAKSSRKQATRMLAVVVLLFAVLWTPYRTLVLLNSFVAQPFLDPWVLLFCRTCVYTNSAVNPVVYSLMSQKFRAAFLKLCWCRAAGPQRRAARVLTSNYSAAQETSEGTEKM
Conditions: Scalabrino 2007, Hogan 2008; cited from earlier work.

For test [13], the target named is TRH receptors in human amygdala. Conditions: saturable binding; prior studies; read-out: Kd of radioligand binding in human amygdala; cited from earlier work.
Where [14] appears, read: human CNS tissue, read-out: IC50, displacement of [^3H][3-Me-His^2]TRH from CNS tissue.

As for `NC(=O)C[C@H](NC(=O)[C@@H]1CCC(=O)N1)C(=O)N1CCC[C@H]1C(=O)N[C@H](Cc1ccc(O)cc1)C(=O)N[C@H](Cc1c[nH]c2ccccc12)C(N)=O` [Glp-Asn-Pro-D-Tyr-D-TrpNH2] ([pGlu]NP[dY][dW]-NH2), the figures for the Ki in test [1] and in test [2] were 6.8 nM and 11 nM, respectively. Besides, the IC50 was above 100000 nM in test [3]; above 100000 nM in test [4]; around 100 nM in test [5] (setting [14]); around 10 nM in test [5] (human hippocampal membranes, read-out: IC50, displacement of [^3H][3-Me-His^2]TRH from hippocampal membranes). For the same molecule, the “displacement of [^3H][3-Me-His^2]TRH binding from human CNS tissue (in words)” value in test [5] (human CNS tissue) is reported as “found to displace”. Further, the “binding to TRH receptors in human brain and spinal cord (in words)” value in [5] (human brain and spinal cord) is listed as “binds”. Further, the “binding to TRH receptors in human pituitary (in words)” value in test [6] (human pituitary) is recorded as “not pituitary”. The “displacement of [^3H][3-Me-His^2]TRH binding from human pituitary (in words)” value in test [6] (human pituitary membranes) is listed as “does not displace; also recorded: did not displace”. Besides, the “affinity for [^3H][3-Me-His^2]TRH-labelled native TRH receptors, rat cortical tissue homogenate (in words)” value in test [7] (Scalabrino 2007, Hogan 2008) is “high affinity”. Further, the “affinity for [^3H][3-Me-His^2]TRH-labelled native TRH receptors, rat hippocampal tissue homogenate (in words)” value in test [8] is “high affinity”. The “displacement of [^3H][3-Me-His^2]TRH binding from GH4 membranes (in words)” value in test [9] was “does not displace”. Besides, the “displacement of [^3H][3-Me-His^2]TRH binding from CHO-TRHR1 membranes (in words)” value in test [10] is listed as “does not displace”. Further, the “displacement of [^3H][3-Me-His^2]TRH binding from native rat pituitary tissue (in words)” value in test [11] (Scalabrino 2007, Hogan 2008) was “does not displace”. Further, the “displacement of [^3H][3-Me-His^2]TRH binding from CHO-TRHR2 membranes (in words)” value in test [12] was “does not displace”.
On to `Cc1cc(=O)oc2cc(NC(=O)[C@@H](Cc3c[nH]c4ccccc34)NC(=O)[C@@H](Cc3ccc(O)cc3)NC(=O)[C@@H]3CCCN3C(=O)[C@H](CC(N)=O)NC(=O)[C@@H]3CCC(=O)N3)ccc12` [Glp-Asn-Pro-DTyr-DTrp-AMC] ([pGlu]NP[dY][dW]-{AMC}), for which the Ki was 1.7 nM in test [1] and 22 nM in test [2]. Moreover, in test [3], the IC50 is above 100000 nM.
Taken in the same sequence, the figures for `Cc1cc(=O)oc2cc(NC(=O)[C@@H](Cc3c[nH]c4ccccc34)NC(=O)[C@@H](Cc3c[nH]c4ccccc34)NC(=O)[C@@H](Cc3ccc(O)cc3)NC(=O)[C@@H]3CCCN3C(=O)[C@H](CC(N)=O)NC(=O)[C@@H]3CCC(=O)N3)ccc12` [Glp-Asn-Pro-DTyr-DTrp-DTrp-AMC] ([pGlu]NP[dY][dW][dW]-{AMC}) were 25 nM, 30 nM and above 100000 nM.
Taken in the same sequence, the figures for `Cc1cc(=O)oc2cc(NC(=O)[C@H](Cc3c[nH]c4ccccc34)NC(=O)[C@H](Cc3ccc(O)cc3)NC(=O)[C@@H]3CCCN3C(=O)[C@H](CC(N)=O)NC(=O)[C@@H]3CCC(=O)N3)ccc12` [Glp-Asn-Pro-LTyr-LTrp-AMC] ([pGlu]NPYW-{AMC}) were 330 nM, 80 nM and above 100000 nM.
The molecule `Cc1cc(=O)oc2cc(NC(=O)[C@H](Cc3c[nH]c4ccccc34)NC(=O)[C@H](Cc3c[nH]c4ccccc34)NC(=O)[C@H](Cc3ccc(O)cc3)NC(=O)[C@@H]3CCCN3C(=O)[C@H](CC(N)=O)NC(=O)[C@@H]3CCC(=O)N3)ccc12` [Glp-Asn-Pro-LTyr-LTrp-LTrp-AMC] ([pGlu]NPYWW-{AMC}) returned a Ki in test [2] of 8.8 nM. Further, the IC50 in test [3] is above 100000 nM.
For `NC(=O)C[C@H](NC(=O)[C@@H]1CCC(=O)N1)C(=O)N1CCC[C@H]1C(=O)N[C@@H](Cc1ccc(O)cc1)C(=O)N[C@@H](Cc1c[nH]c2ccccc12)C(N)=O` [Glp-Asn-Pro-LTyr-LTrp-NH2] ([pGlu]NPYW-NH2), the values for the Ki in [1] and in test [2] were 110 nM and 120 nM, respectively. The IC50 in test [3] and in test [4] was above 100000 nM in each case.
Take `NC(=O)[C@@H]1CCCN1C(=O)[C@H](Cc1cnc[nH]1)NC(=O)[C@@H]1CCC(=O)N1` [TRH, Thyrotropin releasing hormone, reference compound]: the 50% inhibitory concentration (IC50) in test [5] (setting [14]) is around 10 nM; in test [6] (human pituitary, 5 h at 4° C., read-out: IC50, displacement of [^3H][3-Me-His^2]TRH from pituitary tissue), around 10 nM. Besides, the inhibition constant Ki in [7] (prior studies, read-out: Ki, competition for [^3H][3-Me-His^2]TRH sites on rat brain cortical membranes) was around 25 nM.
Consider `Cn1cnc(C[C@H](NC(=O)[C@@H]2CCC(=O)N2)C(=O)N2CCC[C@H]2C(N)=O)c1` [[3-Me-His2]TRH, reference compound], for which the Ki in [1] is 74 nM; in test [2], 34 nM. For the same molecule, the IC50 stood at 11.2 nM in test [3] and 17.5 nM in [4].
As for [^3H][3-Me-His^2]TRH, the Kd was around 5 nM in test [7] (single population of high affinity sites, prior studies, read-out: Kd of radioligand binding, rat brain cortical membranes); 2.2 nM in test [11] (single population of high-affinity sites, prior studies, read-out: Kd of radioligand binding, rat pituitary tissue); 7 to 10 nM in [13].
